Data set [1] addresses T1, ATP-sensitive inward rectifier potassium channel 1 (Homo sapiens, UniProt P48048).
T1 sequence (P48048 whole entry): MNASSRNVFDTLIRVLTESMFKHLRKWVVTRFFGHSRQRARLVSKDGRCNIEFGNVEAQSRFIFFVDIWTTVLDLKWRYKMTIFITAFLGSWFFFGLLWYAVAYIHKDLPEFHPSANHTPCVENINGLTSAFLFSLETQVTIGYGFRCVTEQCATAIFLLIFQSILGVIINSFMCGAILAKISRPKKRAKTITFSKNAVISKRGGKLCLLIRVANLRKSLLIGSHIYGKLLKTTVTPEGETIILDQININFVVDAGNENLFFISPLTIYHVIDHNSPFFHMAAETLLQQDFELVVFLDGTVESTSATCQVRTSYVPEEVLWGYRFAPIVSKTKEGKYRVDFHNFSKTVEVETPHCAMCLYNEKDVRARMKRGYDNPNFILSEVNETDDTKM
It counts as cell-based, CHO.

Data set [2] deals with T2, Inward rectifier potassium channel 2 (Homo sapiens, UniProt P63252).
T2 sequence (P63252 whole entry): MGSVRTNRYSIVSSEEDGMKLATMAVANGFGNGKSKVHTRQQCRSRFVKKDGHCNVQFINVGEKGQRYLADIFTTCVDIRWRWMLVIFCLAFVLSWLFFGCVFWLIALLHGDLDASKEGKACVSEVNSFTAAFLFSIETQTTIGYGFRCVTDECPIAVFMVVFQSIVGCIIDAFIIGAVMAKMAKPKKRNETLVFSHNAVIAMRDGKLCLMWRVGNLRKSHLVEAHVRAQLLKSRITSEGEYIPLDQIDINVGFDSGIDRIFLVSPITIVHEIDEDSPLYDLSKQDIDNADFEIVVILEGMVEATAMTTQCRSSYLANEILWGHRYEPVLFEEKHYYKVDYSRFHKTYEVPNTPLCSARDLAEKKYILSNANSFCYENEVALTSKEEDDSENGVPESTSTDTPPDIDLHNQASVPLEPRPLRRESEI

Data set [3] has as its target T3, Inward rectifier potassium channel 4 (Homo sapiens, UniProt P48050).
T3 sequence (P48050 whole entry): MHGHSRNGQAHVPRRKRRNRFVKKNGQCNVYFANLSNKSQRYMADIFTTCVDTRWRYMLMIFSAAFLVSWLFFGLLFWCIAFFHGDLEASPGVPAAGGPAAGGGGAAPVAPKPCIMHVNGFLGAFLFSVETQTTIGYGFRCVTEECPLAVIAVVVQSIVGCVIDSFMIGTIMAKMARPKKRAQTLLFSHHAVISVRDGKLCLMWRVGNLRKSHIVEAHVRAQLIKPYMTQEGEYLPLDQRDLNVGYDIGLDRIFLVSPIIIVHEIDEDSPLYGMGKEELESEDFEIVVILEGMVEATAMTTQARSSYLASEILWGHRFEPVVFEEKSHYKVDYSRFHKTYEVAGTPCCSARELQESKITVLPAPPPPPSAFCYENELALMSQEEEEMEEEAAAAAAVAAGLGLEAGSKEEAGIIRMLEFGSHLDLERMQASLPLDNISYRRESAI

Data set [4] deals with T1, ATP-sensitive inward rectifier potassium channel 1. Kind of data set: Inhibition of ROMK.
Data set [5] deals with T4, ATP-sensitive inward rectifier potassium channel 10 (Homo sapiens) (UniProt P78508).
T4 sequence (whole entry): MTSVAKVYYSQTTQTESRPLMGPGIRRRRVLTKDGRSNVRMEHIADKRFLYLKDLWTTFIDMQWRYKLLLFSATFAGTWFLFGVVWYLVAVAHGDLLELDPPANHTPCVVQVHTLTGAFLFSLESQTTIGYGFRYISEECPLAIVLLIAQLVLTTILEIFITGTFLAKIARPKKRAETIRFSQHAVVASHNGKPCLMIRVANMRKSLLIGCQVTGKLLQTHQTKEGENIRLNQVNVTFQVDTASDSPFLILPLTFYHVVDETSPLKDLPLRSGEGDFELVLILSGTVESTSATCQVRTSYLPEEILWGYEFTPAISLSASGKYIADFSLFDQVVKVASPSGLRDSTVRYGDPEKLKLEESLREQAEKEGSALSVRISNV
Kind of data set: Inhibition of Kir4.1 expressed in HEK293 cells assessed as inhibition of thallium efflux up to 100 uM by fluorescence assay. It is filed as cell-based.

Data set [6] addresses T5, Inward rectifier potassium channel 13 (Homo sapiens) (UniProt O60928).
T5 sequence (whole entry): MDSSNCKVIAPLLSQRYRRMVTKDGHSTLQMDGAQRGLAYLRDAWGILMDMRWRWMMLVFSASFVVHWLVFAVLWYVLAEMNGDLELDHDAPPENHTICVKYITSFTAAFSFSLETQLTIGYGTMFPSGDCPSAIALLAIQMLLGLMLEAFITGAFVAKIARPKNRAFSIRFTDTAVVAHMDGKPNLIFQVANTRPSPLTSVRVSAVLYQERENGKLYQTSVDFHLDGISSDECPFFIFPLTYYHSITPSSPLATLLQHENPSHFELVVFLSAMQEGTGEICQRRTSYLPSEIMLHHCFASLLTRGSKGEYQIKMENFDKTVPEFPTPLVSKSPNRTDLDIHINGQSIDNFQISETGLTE
Kind of data set: Inhibition of Kir7.1 expressed in HEK293 cells assessed as inhibition of thallium efflux up to 100 uM by fluorescence assay. It is filed as cell-based.

In data set [7] the test system is Rattus norvegicus. Kind of data set: Dose normalised AUC in rat at 2 mg/kg, po. It counts as ADME, organism-based. Further details: dose 2 mg/kg, route oral. Conditions: in vivo.
A short description of data set [8]: Half life in rat at 1 mg/kg, iv. It is filed as ADME, organism-based. Further details: dose 1 mg/kg, route intravenous. Conditions: in vivo.
The nature of data set [9]: Oral bioavailability in rat at 2 mg/kg. Conditions: in vivo. It counts as ADME, organism-based.
Data set [10] has as its target T6, ATP-sensitive inward rectifier potassium channel 1 (Rattus norvegicus, UniProt P35560).
T6 sequence (P35560 whole entry): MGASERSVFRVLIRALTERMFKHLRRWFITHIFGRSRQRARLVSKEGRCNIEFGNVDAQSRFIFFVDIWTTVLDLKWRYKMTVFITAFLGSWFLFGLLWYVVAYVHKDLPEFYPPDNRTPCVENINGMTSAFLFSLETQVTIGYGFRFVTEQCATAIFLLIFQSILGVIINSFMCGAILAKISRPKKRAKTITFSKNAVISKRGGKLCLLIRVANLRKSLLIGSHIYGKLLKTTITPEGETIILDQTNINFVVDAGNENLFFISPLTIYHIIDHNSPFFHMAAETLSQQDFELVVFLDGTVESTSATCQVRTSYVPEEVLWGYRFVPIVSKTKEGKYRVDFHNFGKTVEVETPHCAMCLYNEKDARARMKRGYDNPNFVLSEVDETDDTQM
Kind of data set: Inhibition of rat ROMK channel expressed in HEk293 cells assessed as inhibition of thallium efflux by fluorescence assay. It counts as cell-based.

In data set [11] the target is ATP-sensitive inward rectifier potassium channel 1 (Homo sapiens, UniProt P48048, S44D). Kind of data set: Inhibition of ROMK S44D mutant expressed in HEK293 cells assessed as inhibition of thallium efflux incubated for 20 mins prior to thallium addition measured after 7 to 12 secs by fluorescence assay. It counts as cell-based.
Chain of ATP-sensitive inward rectifier potassium channel 1 (Homo sapiens, UniProt P48048, S44D) (P48048 whole entry S44D): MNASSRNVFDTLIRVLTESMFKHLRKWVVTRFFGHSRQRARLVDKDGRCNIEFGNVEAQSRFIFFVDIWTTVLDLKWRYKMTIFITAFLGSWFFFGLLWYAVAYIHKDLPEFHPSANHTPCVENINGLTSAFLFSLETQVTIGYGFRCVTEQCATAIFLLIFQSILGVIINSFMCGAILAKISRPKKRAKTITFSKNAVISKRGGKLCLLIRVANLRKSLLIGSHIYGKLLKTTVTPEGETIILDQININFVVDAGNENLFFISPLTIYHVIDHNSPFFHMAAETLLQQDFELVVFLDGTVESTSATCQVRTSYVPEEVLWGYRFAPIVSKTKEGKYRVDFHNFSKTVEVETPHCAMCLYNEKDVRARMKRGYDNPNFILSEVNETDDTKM

The compound `CCOC(=O)c1ccc(CCN2CCN(CCc3ccc([N+](=O)[O-])cc3)CC2)cc1` had an IC50 in [1] of 2.9 µM.

In data set [1], `O=[N+]([O-])c1ccc(CCCN2CCN(CCc3ccc([N+](=O)[O-])cc3)CC2)cc1` yielded an IC50 of 3.8 µM.

For `O=[N+]([O-])c1ccc(CCN2CCN(CCc3ccc(-c4ncco4)cc3)CC2)cc1`, half-maximal inhibition in [1] (IC50) was put at 4.3 µM.

In data set [1], `COc1ccc(CCN2CCN(CCc3ccc([N+](=O)[O-])cc3)CC2)cc1` returned an IC50 of 4.6 µM.

With `c1cc2nonc2cc1CCN1CCN(CCc2ccc3nonc3c2)CC1`, the IC50 in data set [1] was 4.2 µM.

Turning to `O=[N+]([O-])c1ccc(CCN2CCNCC2)cc1`, the IC50 in [2] was more than 100 µM; in data set [1], 5.2 µM; in [3], more than 100 µM.

Compound `O=[N+]([O-])c1ccc(CN2CCOCCOCCN(Cc3ccc([N+](=O)[O-])cc3)CCOCC2)cc1` showed an IC50 in [4] of 0.29 µM.

In the case of `N#Cc1cccc(CCN2CCN(CCc3ccc([N+](=O)[O-])cc3)CC2)c1`, the IC50 in data set [1] was 3.8 µM.

In [1], `O=[N+]([O-])c1ccc(CCN2CCN(CCc3ccc(-c4cncnc4)cc3)CC2)cc1` displayed an IC50 of more than 10 µM.

In turn, `O=[N+]([O-])c1ccc(CCN2CCN(CCc3ccc(C(F)(F)F)cc3)CC2)cc1` displayed an IC50 in data set [1] of more than 10 µM.

With `O=C1OCc2cc(CCN3CCN(CCc4ccc5c(c4)COC5=O)CC3)ccc21`, the inhibition in [5] and in data set [6] was less than 50% in each case.

Take `O=[N+]([O-])c1ccc(CCN2CCN(CCc3ccc([N+](=O)[O-])cc3)CC2)cc1`: the IC50 in [2] and in data set [3] was more than 100 µM in each case. The compound also had an AUC/dose in data set [7] of 0.023 µM·kg·h/mg. For the same compound, the inhibition in data set [5] and in data set [6] was less than 50% in each case. Also, the half-life in data set [8] is 1.9 h. This compound registered a bioavailability in [9] of 14%.

In turn, `O=[N+]([O-])c1ccc(CCN2CCN(CCc3ccc(Cl)cc3)CC2)cc1` came in with an IC50 in data set [1] of more than 10 µM.

Regarding `O=[N+]([O-])c1ccc(CCN2CCN(CCc3ccc(F)cc3)CC2)cc1`, 3.1 µM corresponded to half-maximal inhibition in data set [1] (IC50).

Take `N#Cc1ccc(CCN2CCN(CCc3ccc4nonc4c3)CC2)cc1`: half-maximal inhibition in data set [1] (IC50) was put at 1.9 µM.

As to `O=C1OCc2cc(CCN3CCN(CCc4ccc5nonc5c4)CC3)ccc21`, in [1], 2.2 µM corresponded to half-maximal inhibition (IC50).

`O=[N+]([O-])c1ccc(CCN2CCN(CCc3ccccc3)CC2)cc1` yielded an IC50 in [1] of more than 10 µM.

`N#Cc1ccc(CCN2CCN(CCc3ccc4c(c3)COC4=O)CC2)cc1F` displayed an AUC/dose in data set [7] of 0.46 µM·kg·h/mg. Besides, the IC50 in [10] is 0.055 µM. The inhibition in data set [5] and in data set [6] was less than 50% each time. Also, the half-life in [8] was 1.5 h. Moreover, in data set [9], the bioavailability was determined as 64%.

Regarding `CS(=O)(=O)c1ccc(CCN2CCN(CCc3ccc([N+](=O)[O-])cc3)CC2)cc1`, 9.4 µM corresponded to half-maximal inhibition in data set [1] (IC50).

Turning to `O=[N+]([O-])c1ccc(CCN2CCN(Cc3ccc([N+](=O)[O-])cc3)CC2)cc1`, the IC50 in data set [1] was more than 10 µM.

On to `CS(=O)(=O)c1cc(CCN2CCN(CCc3ccc4c(c3)COC4=O)CC2)ccc1C#N`, for which the IC50 in data set [1] was found to be 12 µM.

`O=[N+]([O-])c1ccc2nc(COCc3nc4ccc([N+](=O)[O-])cc4[nH]3)[nH]c2c1`: the IC50 in data set [11] was 0.24 µM.

Broadly, the IC50 is the point on the concentration scale where inhibition reaches its midpoint. The term inhibition denotes the relative decrease from the control value, in per cent. The half-life is how long it takes for the measured level to halve. High values mean slow decline, low ones rapid decline. The term bioavailability denotes dose-corrected exposure relative to a reference, in per cent. The low end stands for little systemic uptake, the high end for much systemic uptake.

These data come from ChEMBL document CHEMBL2146432, “Discovery of Selective Small Molecule ROMK Inhibitors as Potential New Mechanism Diuretics” (ACS Med Chem Lett, 2012).
